Assays:
PD-L1 = PD-L1 surface expression of LLC-JSP cells by flow cytometry; format: cell-based, mouse; conditions: 500 ng/ml inhibitor
From the text: FIGS. 3A-3C. […] (FIG. 3A) PLK1 and PD-L1 mRNA expression in A549 (human NSCLC) at 48 hr post treatment with PLK1 siRNA (siPLK1) or scrambled siRNA (siSCR) normalized to HPRT housekeeping gene. Data presented as mean±SD from triplicates; ****P<0.0001. (FIG. 3B) PD-L1 surface expression of A549 ([…]) and LLC-JSP (a mouse NSCLC, FIG. 3C) at 72 hr post treatments assessed by flow cytometry (10,000 events per sample). Mouse siPLK1 seq. […] (SEQ ID NO: 1); Human siPLK1 seq. […] (SEQ ID NO: 2).
FIGS. 4A-4C Treatment effects of mitotic kinase inhibitors on (A) 3-day viability of LLC-JSP cells, (B) PD-L1 expression levels of surviving cells post treatment with 500 ng/ml of volasertib, alisertib, or AZD7762 as determined by flow cytometry and (C) their quantification.
FIGS. 6A-6D Nanoparticle delivery of PLK1 inhibitor volasertib (iPLK1-NP) to mouse NSCLC cells. (FIG. 6A) Schematic of synthesis of iPLK1-NP. (FIG. 6B) Hydrodynamic size of NP (with no inhibitor) and iPLK1-NP measured with Zetasizer. (FIG. 6C) Viability of LLC-JSP cells treated with volasertib (in 1% DMSO/PBS), iPLK1-NP (in PBS), or 1% DMSO/PBS for 4 days. Data presented as mean±SD from 4 independent samples; ****P<0.0001. (FIG. 6D) PD-L1 surface expression of LLC-JSP cells treated with PBS or iPLK1-NP (42 μg/ml NP, 210 ng/ml volasertib) for 3 days.
FIGS. 7A-7E. Nanoparticle for co-delivery of PLK1 inhibitor (iPLK1) and PD-L1 antibody (p-iPLK1-NP). (FIG. 7A) Schematic and (FIG. 7B) hydrodynamic size of p-iPLK1-NP containing 4 wt. % of PD-L1 antibody and 0.5 wt. % of PLK1 inhibitor. (FIG. 7C) 5-day cell viability of LLC-JSP cells treated with iPLK1-NP or p-iPLK1-NP. Data presented as mean±SD from 4 independent samples; ns—not significant. PD-L1 surface expression assessed by flow cytometry after LLC-JSP cells were incubated with various treatments as specified for (FIG. 7D) 2 hrs and (FIG. 7E) 2 days. […]
Flow cytometry: Cells (100K cells/well) were plated in 6 well plates overnight and treated with indicated treatments the next day. […] Cells were then washed with FACs buffer and analyzed with Guava (50,000 events per sample).

A549 = assay: Cell cycle arrest in G2/M phase in A549; format: cell-based, human; conditions: A549, 72 hr post treatment; siRNA 50 nM, BI 2536 10 nM
Protocol: FIGS. 2A-2D. Effects of siRNA against mitotic regulator PLK1 (siPLK1) on non-small-cell lung carcinoma (NSCLC) cell lines (A549 and H460). (FIG. 2A) 48-hr PLK1 mRNA knockdown (HPRT used as house-keeping gene) and (FIG. 2B) 72-hr PLK1 protein reduction at 50 nM siRNA dose. (FIG. 2C) 4-day cell viability at 30 nM siRNA dose. (FIG. 2D) Cell cycle arrest increase in G2/M phase in A549 72 hr post treatment. Antibody (cetuximab) conjugated NP was used to deliver the siPLK1 (C-siPLK1-NP) or scrambled siRNA control (C-siSCR-NP) at 50 nM siRNA BI 2536 (a PLK1 inhibitor) was used as a drug benchmark at 10 nM. Data presented as mean±SD from independent duplicates (10,000 events per sample); ****P<0.0001 vs. untreat control. Unless specified otherwise, “NP” denotes mesoporous silica nanoparticles coated with cross-linked PEI and PEG, as described in Ngamcherdtrakul et al., Advanced Functional Materials, 25(18):2646-2659, 2015 and U.S. Patent Application Publication No. 2017/0173169.

LLC-JSP cells = assay: Cell viability of LLC-JSP cells (Cell Titer Glo); format: cell-based, mouse; conditions: 4 days, dose-dependent
Protocol: (FIG. 14B) Treatment effect of ADC versus free alisertib of equivalent dose on viability of LLC-JSP cells (2-days). […] (FIG. 14C) Effect of PD-L1 on the viability of LLC-JSP cells.
Cell viability after treatments: Cells (1500/well) were plated in white flat bottom 96 well plate overnight. The following day, cells were treated with indicated treatments and media was changed 24 hr post treatment. 3-5 day post treatment, cell viability was assessed using Cell Titer Glo assay (Promega) following manufacturer's instructions. Luminescence was read with Tecan plate reader.

lung cancer = conditions: phase II, 300 mg once every 3 weeks; cited from earlier work
acute myeloid leukemia = conditions: phase III; cited from earlier work

Compound	surface PD-L1 level of surviving cells (PD-L1)	cell cycle arrest in G2/M (A549)	viability of LLC-JSP cells vs vehicle (LLC-JSP cells)	response as monotherapy (lung cancer)	primary endpoint of objective response (acute myeloid leukemia)
NC(=O)Nc1cc(-c2cccc(F)c2)sc1C(=O)N[C@H]1CCCNC1 [AZD7762]	upregulated surface PD-L1 level	–	–	–	–
COc1cc(Nc2ncc3c(n2)-c2ccc(Cl)cc2C(c2c(F)cccc2OC)=NC3)ccc1C(=O)O [alisertib]	upregulated surface PD-L1 level	–	–	–	–
CC[C@@H]1C(=O)N(C)c2cnc(Nc3ccc(C(=O)NC4CCN(C)CC4)cc3OC)nc2N1C1CCCC1 [B12536]	–	G2/M growth arrest	–	–	–
CC[C@@H]1C(=O)N(C)c2cnc(Nc3ccc(C(=O)N[C@H]4CC[C@H](N5CCN(CC6CC6)CC5)CC4)cc3OC)nc2N1C(C)C [volasertib]	upregulated surface PD-L1 level	–	significantly reduced cell viability	lack of response	failed to meet primary endpoint of objective response
